# Assay results: article PMC3687796 (Clinical cancer research : an official journal of the …, 2011)
# Counter-ions that a name gives are not always drawn.
# What was measured:
# [1] = tested on: KHOS osteosarcoma xenograft; experiment: KHOS osteosarcoma xenograft model; assay type: in vivo; settings: for tumor growth / tumor weight at the end of the treatment / tumor microvessel density (vWF pixel counts): 28 days; for tumor microvessel density (vWF pixel counts): compared with the control
# BE(2)-c metastatic model = experiment: BE; assay type: in vivo, mouse; settings: daily oral until death or endpoint
# KHOS = experiment: In vitro cytotoxicity, Alamar blue cell viability; assay type: cell-based; settings: 72 h, read-out: IC50, viability of KHOS
# RD = experiment: In vitro cytotoxicity, Alamar blue cell viability; assay type: cell-based; settings: Homo sapiens, 72 h, read-out: IC50, viability of RD
# [2] = PKs of topotecan and pazopanib in nontumor-bearing animals; assay type: in vivo, mouse; settings: for difference between plasma concentrations of single agent and combination treated animals: at any time point
# [3] = tested on: RH30 rhabdomyosarcoma xenograft; experiment: RH30 rhabdomyosarcoma xenograft model; assay type: in vivo; settings: for tumor growth: LDM TP 1.0 mg/kg, PZ 150 mg/kg, TP + PZ both
# RH30 = experiment: In vitro cytotoxicity, Alamar blue cell viability; assay type: cell-based; settings: Rh30, 72 h, read-out: IC50, viability of RH30
# ovarian cancer model = settings: cited from earlier work
# SH-SY5Y xenograft = experiment: SH-SY5Y subcutaneous xenograft model; assay type: in vivo; settings: for tumor microvessel density (CD31 pixel counts): compared with the control, 20 days treatment; for tumor growth delay / tumor weights at the end of the treatment: daily oral, 20 days, LDM TP 1.0 mg/kg, PZ 150 mg/kg, TP + PZ both
# tumor cell lines = experiment: In vitro cytotoxicity, Alamar blue cell viability, all tumor cell lines; assay type: cell-based; settings: 72 hours treatment, all concentrations tested
# [4] = Pulse TP weekly oral 15 mg/kg topotecan
# [5] = daily oral, LDM TP 1.0 mg/kg, TP + PZ 1.0 + 150 mg/kg
structure (smiles),measurement,setting,value
"CC[C@@]1(O)C(=O)OCc2c1cc1n(c2=O)Cc2cc3c(CN(C)C)c(O)ccc3nc2-1 [topotecan, (S)-10-[(dimethylamino)methyl]-4-ethyl-4,9-dihydroxy-1H-yrano [3′,4′:6,7] indolizino[1,2-b] quinoline-3,14 (4H,12H)-dione monohydrochloride]",tumor growth,[1]; [4],delayed the tumor growth
same,tumor weight at the end of the treatment,[1]; [4],significantly lower tumor weight
same,tumor growth,[1]; [5],delayed the tumor growth
same,tumor weight at the end of the treatment,[1]; [5],significantly lower tumor weight
same,viable CEP levels in blood,[1]; after 28 days treatment,significant reduction in viable CEP levels compared with Pulse TP
same,tumor microvessel density (vWF pixel counts),[1]; Pulse TP weekly 15 mg/kg,caused reduction in microvessel densities
same,tumor microvessel density (vWF pixel counts),[1]; daily regimens,caused reduction in microvessel densities
same,survival,BE(2)-c metastatic model,higher than PZ-treated animals
same,IC50,KHOS,4.9 ng/mL
same,IC50,RD,7.5 ng/mL
same,peak plasma concentration of topotecan,"[2]; LDM TP group, single oral 1.0 mg/kg topotecan",19.75 ng/mL
same,peak plasma concentration of topotecan,"[2]; TP + PZ group, single oral 1.0 mg/kg topotecan + 150 mg/kg pazopanib",33.05 ng/mL
same,difference between plasma concentrations of single agent and combination treated animals,[2],no significant difference
same,tumor growth,"[3]; daily oral, 56 days",ineffective in controlling the tumor growth
same,IC50,RH30,7.4 ng/mL
same,food intake,"ovarian cancer model; 1.5 mg/kg daily, oral",decreased food intake
same,microvascular density compared with weekly maximum-tolerated dose regimen (7.5 and 15 mg/kg),"ovarian cancer model; daily oral metronomic 0.5, 1.0 and 1.5 mg/kg",greater reduction in microvascular density
same,tumor microvessel density (CD31 pixel counts),SH-SY5Y xenograft,but not LDM TP caused significant reduction in microvessel densities
same,tumor growth delay,SH-SY5Y xenograft,tumor growth delay in the order PZ< LDM TP< TP+PZ
same,tumor weights at the end of the treatment,SH-SY5Y xenograft,significant tumor weight reduction compared with PZ
same,effect on viability of the tumor cell lines,tumor cell lines,dose-dependent reduction in the viability
"Cc1ccc(Nc2nccc(N(C)c3ccc4c(C)n(C)nc4c3)n2)cc1S(N)(=O)=O [pazopanib, 5-[[4-[(2,3-Dimethyl-2H-indazol-6-yl)methyl-amino]-2-pyrimidinyl]amino]-2-methylbenzolsulfonamide]",difference between plasma concentrations of single agent and combination treated animals,[2],no significant difference
same,Cmax,"[2]; mouse, plasma, po, 150 mg/kg",134 µg/mL
same,WBC level (bone marrow toxicity),[3]; after 31 days treatment,reduced WBC level significantly
same,viable CEP levels in blood,[3]; after 31 days treatment,significantly lower viable CEP levels compared with the control
same,enhancement of survival compared with both control and LDM TP,"[3]; daily oral, 56 days",2 fold
same,tumor growth,"[3]; daily oral, 56 days",delayed the tumor growth
same,tumor microvessel density (CD31 pixel counts),SH-SY5Y xenograft,significant reduction in microvessel densities
same,tumor growth delay,SH-SY5Y xenograft,tumor growth delay in the order PZ< LDM TP< TP+PZ
same,tumor weights at the end of the treatment,SH-SY5Y xenograft,significant difference in tumor weights compared with the control
same,effect on viability of the tumor cell lines,tumor cell lines,did not affect the viabilities
